Values joined by “and” are separate entries in the source; they are usually repeats but may differ in a detail not shown here. Identical values can stand only once.
Conditions: Coaxial cylinder method

C=C [ethene]
Conditions | thermal conductivity
283.47 K, 101 kPa, Gas | 0.01865 W/m/K
283.47 K, 4620 kPa, Fluid (supercritical or subcritical phases) | 0.03417 W/m/K
283.47 K, 4770 kPa, Fluid (supercritical or subcritical phases) | 0.03732 W/m/K
283.47 K, 4910 kPa, Fluid (supercritical or subcritical phases) | 0.04251 W/m/K
283.47 K, 4960 kPa, Fluid (supercritical or subcritical phases) | 0.04566 W/m/K
283.47 K, 5050 kPa, Fluid (supercritical or subcritical phases) | 0.05593 W/m/K
283.47 K, 5090 kPa, Fluid (supercritical or subcritical phases) | 0.06391 W/m/K
283.47 K, 5120 kPa, Fluid (supercritical or subcritical phases) | 0.07425 W/m/K
283.47 K, 5140 kPa, Fluid (supercritical or subcritical phases) | 0.09013 W/m/K
283.47 K, 5150 kPa, Fluid (supercritical or subcritical phases) | 0.1049 W/m/K and 0.1032 W/m/K
283.47 K, 5160 kPa, Fluid (supercritical or subcritical phases) | 0.1241 W/m/K
283.47 K, 5170 kPa, Fluid (supercritical or subcritical phases) | 0.1339 W/m/K
283.47 K, 5180 kPa, Fluid (supercritical or subcritical phases) | 0.1143 W/m/K
283.47 K, 5190 kPa, Fluid (supercritical or subcritical phases) | 0.09843 W/m/K
283.47 K, 5200 kPa, Fluid (supercritical or subcritical phases) | 0.09006 W/m/K and 0.0888 W/m/K
283.47 K, 5210 kPa, Fluid (supercritical or subcritical phases) | 0.08522 W/m/K
283.47 K, 5220 kPa, Fluid (supercritical or subcritical phases) | 0.08191 W/m/K
283.47 K, 5230 kPa, Fluid (supercritical or subcritical phases) | 0.07984 W/m/K
283.47 K, 5240 kPa, Fluid (supercritical or subcritical phases) | 0.07787 W/m/K
283.47 K, 5250 kPa, Fluid (supercritical or subcritical phases) | 0.076 W/m/K
283.47 K, 5290 kPa, Fluid (supercritical or subcritical phases) | 0.07419 W/m/K
283.47 K, 5300 kPa, Fluid (supercritical or subcritical phases) | 0.07248 W/m/K
283.47 K, 5370 kPa, Fluid (supercritical or subcritical phases) | 0.07203 W/m/K
283.47 K, 5390 kPa, Fluid (supercritical or subcritical phases) | 0.07122 W/m/K
283.47 K, 5440 kPa, Fluid (supercritical or subcritical phases) | 0.06948 W/m/K
283.47 K, 5480 kPa, Fluid (supercritical or subcritical phases) | 0.06848 W/m/K
283.47 K, 5540 kPa, Fluid (supercritical or subcritical phases) | 0.06774 W/m/K
283.47 K, 5730 kPa, Fluid (supercritical or subcritical phases) | 0.06774 W/m/K
283.47 K, 5820 kPa, Fluid (supercritical or subcritical phases) | 0.06848 W/m/K
283.47 K, 5930 kPa, Fluid (supercritical or subcritical phases) | 0.06847 W/m/K
283.47 K, 6220 kPa, Fluid (supercritical or subcritical phases) | 0.07041 W/m/K
283.47 K, 6490 kPa, Fluid (supercritical or subcritical phases) | 0.07152 W/m/K
283.47 K, 6720 kPa, Fluid (supercritical or subcritical phases) | 0.07259 W/m/K
283.47 K, 6980 kPa, Fluid (supercritical or subcritical phases) | 0.07316 W/m/K
283.47 K, 7060 kPa, Fluid (supercritical or subcritical phases) | 0.07329 W/m/K
283.47 K, 7200 kPa, Fluid (supercritical or subcritical phases) | 0.07345 W/m/K
283.47 K, 7610 kPa, Fluid (supercritical or subcritical phases) | 0.07519 W/m/K
283.47 K, 8250 kPa, Fluid (supercritical or subcritical phases) | 0.07664 W/m/K
283.47 K, 8910 kPa, Fluid (supercritical or subcritical phases) | 0.07874 W/m/K
283.96 K, 101 kPa, Gas | 0.01869 W/m/K
283.96 K, 3380 kPa, Fluid (supercritical or subcritical phases) | 0.02528 W/m/K
283.96 K, 3960 kPa, Fluid (supercritical or subcritical phases) | 0.02767 W/m/K
283.96 K, 4620 kPa, Fluid (supercritical or subcritical phases) | 0.03396 W/m/K
283.96 K, 4970 kPa, Fluid (supercritical or subcritical phases) | 0.04334 W/m/K
283.96 K, 5050 kPa, Fluid (supercritical or subcritical phases) | 0.04855 W/m/K
283.96 K, 5090 kPa, Fluid (supercritical or subcritical phases) | 0.05262 W/m/K
283.96 K, 5110 kPa, Fluid (supercritical or subcritical phases) | 0.05631 W/m/K
283.96 K, 5120 kPa, Fluid (supercritical or subcritical phases) | 0.05987 W/m/K
283.96 K, 5150 kPa, Fluid (supercritical or subcritical phases) | 0.06832 W/m/K
283.96 K, 5190 kPa, Fluid (supercritical or subcritical phases) | 0.08914 W/m/K
283.96 K, 5200 kPa, Fluid (supercritical or subcritical phases) | 0.1005 W/m/K
283.96 K, 5210 kPa, Fluid (supercritical or subcritical phases) | 0.11 W/m/K
283.96 K, 5220 kPa, Fluid (supercritical or subcritical phases) | 0.1162 W/m/K
283.96 K, 5230 kPa, Fluid (supercritical or subcritical phases) | 0.1119 W/m/K
283.96 K, 5240 kPa, Fluid (supercritical or subcritical phases) | 0.1008 W/m/K
283.96 K, 5260 kPa, Fluid (supercritical or subcritical phases) | 0.08675 W/m/K
283.96 K, 5270 kPa, Fluid (supercritical or subcritical phases) | 0.08189 W/m/K
283.96 K, 5290 kPa, Fluid (supercritical or subcritical phases) | 0.0783 W/m/K
283.96 K, 5300 kPa, Fluid (supercritical or subcritical phases) | 0.07641 W/m/K
283.96 K, 5340 kPa, Fluid (supercritical or subcritical phases) | 0.07293 W/m/K
283.96 K, 5400 kPa, Fluid (supercritical or subcritical phases) | 0.07163 W/m/K
283.96 K, 5500 kPa, Fluid (supercritical or subcritical phases) | 0.06977 W/m/K
283.96 K, 5590 kPa, Fluid (supercritical or subcritical phases) | 0.06886 W/m/K
283.96 K, 5740 kPa, Fluid (supercritical or subcritical phases) | 0.06796 W/m/K
283.96 K, 5920 kPa, Fluid (supercritical or subcritical phases) | 0.06854 W/m/K
283.96 K, 6140 kPa, Fluid (supercritical or subcritical phases) | 0.06972 W/m/K
283.96 K, 6310 kPa, Fluid (supercritical or subcritical phases) | 0.0703 W/m/K
283.96 K, 6530 kPa, Fluid (supercritical or subcritical phases) | 0.0709 W/m/K
283.96 K, 6710 kPa, Fluid (supercritical or subcritical phases) | 0.07122 W/m/K
283.96 K, 7100 kPa, Fluid (supercritical or subcritical phases) | 0.07249 W/m/K
284.89 K, 101 kPa, Gas | 0.01877 W/m/K
284.89 K, 680 kPa, Fluid (supercritical or subcritical phases) | 0.02012 W/m/K
284.89 K, 1170 kPa, Fluid (supercritical or subcritical phases) | 0.02064 W/m/K
284.89 K, 2430 kPa, Fluid (supercritical or subcritical phases) | 0.02241 W/m/K
284.89 K, 3520 kPa, Fluid (supercritical or subcritical phases) | 0.02591 W/m/K
284.89 K, 4330 kPa, Fluid (supercritical or subcritical phases) | 0.03024 W/m/K
284.89 K, 4740 kPa, Fluid (supercritical or subcritical phases) | 0.03518 W/m/K
284.89 K, 4900 kPa, Fluid (supercritical or subcritical phases) | 0.03781 W/m/K
284.89 K, 5030 kPa, Fluid (supercritical or subcritical phases) | 0.04219 W/m/K
284.89 K, 5100 kPa, Fluid (supercritical or subcritical phases) | 0.04581 W/m/K
284.89 K, 5160 kPa, Fluid (supercritical or subcritical phases) | 0.05257 W/m/K
284.89 K, 5200 kPa, Fluid (supercritical or subcritical phases) | 0.05764 W/m/K
284.89 K, 5240 kPa, Fluid (supercritical or subcritical phases) | 0.0653 W/m/K
284.89 K, 5260 kPa, Fluid (supercritical or subcritical phases) | 0.06948 W/m/K
284.89 K, 5290 kPa, Fluid (supercritical or subcritical phases) | 0.08267 W/m/K
284.89 K, 5310 kPa, Fluid (supercritical or subcritical phases) | 0.09324 W/m/K
284.89 K, 5320 kPa, Fluid (supercritical or subcritical phases) | 0.09654 W/m/K
284.89 K, 5340 kPa, Fluid (supercritical or subcritical phases) | 0.09916 W/m/K
284.89 K, 5360 kPa, Fluid (supercritical or subcritical phases) | 0.08875 W/m/K
284.89 K, 5380 kPa, Fluid (supercritical or subcritical phases) | 0.08399 W/m/K
284.89 K, 5400 kPa, Fluid (supercritical or subcritical phases) | 0.07691 W/m/K
284.89 K, 5430 kPa, Fluid (supercritical or subcritical phases) | 0.07429 W/m/K
284.89 K, 5460 kPa, Fluid (supercritical or subcritical phases) | 0.07184 W/m/K
284.89 K, 5490 kPa, Fluid (supercritical or subcritical phases) | 0.06955 W/m/K
284.89 K, 5530 kPa, Fluid (supercritical or subcritical phases) | 0.06954 W/m/K
284.89 K, 5600 kPa, Fluid (supercritical or subcritical phases) | 0.06952 W/m/K
284.89 K, 5610 kPa, Fluid (supercritical or subcritical phases) | 0.06954 W/m/K
284.89 K, 5670 kPa, Fluid (supercritical or subcritical phases) | 0.06864 W/m/K
284.89 K, 5780 kPa, Fluid (supercritical or subcritical phases) | 0.06822 W/m/K
284.89 K, 5890 kPa, Fluid (supercritical or subcritical phases) | 0.06866 W/m/K
284.89 K, 6170 kPa, Fluid (supercritical or subcritical phases) | 0.06954 W/m/K
284.89 K, 6530 kPa, Fluid (supercritical or subcritical phases) | 0.07045 W/m/K
284.89 K, 7030 kPa, Fluid (supercritical or subcritical phases) | 0.07139 W/m/K
284.89 K, 7500 kPa, Fluid (supercritical or subcritical phases) | 0.07332 W/m/K
284.89 K, 8190 kPa, Fluid (supercritical or subcritical phases) | 0.07593 W/m/K
284.89 K, 8580 kPa, Fluid (supercritical or subcritical phases) | 0.07756 W/m/K
284.89 K, 8590 kPa, Fluid (supercritical or subcritical phases) | 0.07756 W/m/K
284.89 K, 9070 kPa, Fluid (supercritical or subcritical phases) | 0.07866 W/m/K
284.89 K, 9530 kPa, Fluid (supercritical or subcritical phases) | 0.07924 W/m/K
284.89 K, 9990 kPa, Fluid (supercritical or subcritical phases) | 0.08043 W/m/K
284.89 K, 10010 kPa, Fluid (supercritical or subcritical phases) | 0.08041 W/m/K
285.04 K, 5080 kPa, Fluid (supercritical or subcritical phases) | 0.04457 W/m/K
285.04 K, 5100 kPa, Fluid (supercritical or subcritical phases) | 0.04514 W/m/K
285.04 K, 5210 kPa, Fluid (supercritical or subcritical phases) | 0.05584 W/m/K
285.04 K, 5270 kPa, Fluid (supercritical or subcritical phases) | 0.06826 W/m/K
285.04 K, 5300 kPa, Fluid (supercritical or subcritical phases) | 0.07918 W/m/K
285.04 K, 5340 kPa, Fluid (supercritical or subcritical phases) | 0.09492 W/m/K
285.04 K, 5350 kPa, Fluid (supercritical or subcritical phases) | 0.09641 W/m/K
285.04 K, 5370 kPa, Fluid (supercritical or subcritical phases) | 0.09081 W/m/K
285.04 K, 5420 kPa, Fluid (supercritical or subcritical phases) | 0.07925 W/m/K
285.04 K, 5490 kPa, Fluid (supercritical or subcritical phases) | 0.07233 W/m/K
285.04 K, 5640 kPa, Fluid (supercritical or subcritical phases) | 0.06952 W/m/K
285.04 K, 6040 kPa, Fluid (supercritical or subcritical phases) | 0.06871 W/m/K and 0.0687 W/m/K
285.04 K, 6050 kPa, Fluid (supercritical or subcritical phases) | 0.06846 W/m/K
285.04 K, 6140 kPa, Fluid (supercritical or subcritical phases) | 0.06843 W/m/K
285.04 K, 6150 kPa, Fluid (supercritical or subcritical phases) | 0.06861 W/m/K

From the NIST ThermoML archive (doi:10.1016/j.fluid.2017.11.013)
